Measured values as given in publication PMC4212090, “The comprehensive analysis of DEG/ENaC subunits in Hydra reveals a large variety of peptide-gated channels, potentially involved in neuromuscular transmission” (BMC Biology, 2014).
Where two headings read alike, the source gives them in different places.

Key:
[1] = molecular target: HyNaC2/10/7 (Hydra magnipapillata)
[2] = molecular target: HyNaC2/3/7 (Hydra magnipapillata)
[3] = molecular target: HyNaC2/4/6 (Hydra magnipapillata)
[4] = molecular target: HyNaC2/3/6 (Hydra magnipapillata)
[5] = molecular target: HyNaC2/3/5 (Hydra magnipapillata)
[6] = molecular target: HyNaC2/11/5 (Hydra magnipapillata)
[7] = molecular target: HyNaC2/9/7 (Hydra magnipapillata)
[8] = system: functional HyNaC heterotrimer; assay: Screen of functional HyNaC heterotrimers in Xenopus oocytes for activation by Hydra-RFamides; format: cell-based, Hydra magnipapillata
Procedure: We tested the function of the new HyNaCs by co-expression of different HyNaC subunit combinations in Xenopus oocytes. We screened for functional subunit combinations by application of 5 μM Hydra-RFamide I, a potent agonist of HyNaC2/3/5 [4]. When we expressed an individual HyNaC subunit we could never elicit currents. […] When HyNaC2 was part of the injected cRNA pool, however, Hydra-RFamide I elicited currents. Simultaneous expression of HyNaC2 with a single other HyNaC resulted only in a functional channel when we co-expressed HyNaC2 and HyNaC3; it was already known that HyNaC2 and HyNaC3 form a low-affinity peptide-gated channel.
Dashed line represents the zero current level. Amino acid sequences of Hydra-RFamides I to V are shown at the bottom. HyNaC, Hydra Na^+ channel.
Since Hydra-RFamide II had been shown previously to activate HyNaC2/3/5 [4], we tested Hydra-RFamides II to V for channel activation.
(§1) To study the biophysical properties of the new HyNaCs, cRNA of HyNaCs was synthesized in vitro (mMessage mMachine kit, Ambion, Austin, Texas, USA) and injected into Xenopus laevis oocytes of stage V and VI. After injection, oocytes were incubated for one to two days at 19°C in oocyte Ringer’s solution 2 (OR-2), which contained (in mM): 82.5 NaCl, 2.5 KCl, 1.0 Na2HPO4, 1.0 MgCl2, 1.0 CaCl2, 5.0 HEPES, 0.5 g/l PVP, 1,000 U/l penicillin and 10 mg/l streptomycin, NaOH was used to adjust pH to 7.3. Whole cell currents were recorded from defolliculated oocytes by two-electrode voltage-clamp (TEVC) using the amplifier TurboTec 03X (npi electronic GmbH, Tamm, Germany). Standard bath solution (in mM: 140 NaCl, 10 HEPES, 1.8 CaCl2 and 1.0 MgCl2. NaOH was used to adjust pH to 7.4.) was exchanged by a pump driven system combined with the oocyte testing carousel (OTC), which was controlled by the interface OTC-20 [53]. To control the OTC-20 and to record the data to the hard drive, the software CellWorks (version 5.1.1; npi electronic GmbH, Tamm, Germany) was used. Data were sampled at 0.1 to 1 kHz and filtered at 20 Hz. HyNaCs are permeable for Ca^2+, activating an endogenous CaCC [40]. Therefore, unless otherwise indicated, oocytes were injected with 50 nl of 20 mM EGTA 30 to 180 minutes before measurements. Reversal potentials and Ca^2+ permeabilities of HyNaCs were studied as described previously.

[9] = system: HyNaC2/9/5; assay: Activation of HyNaC2/9/5 in Xenopus oocytes by Hydra-RFamides; format: cell-based, Hydra magnipapillata; settings: channel opened by lowering extracellular Ca2+
Procedure: The contribution of the distantly related HyNaC12 to peptide-gated channels was assessed by co-expression with HyNaC2 and one or several other HyNaCs (HyNaC3 to HyNaC11). In addition, HyNaC12 was co-expressed with pools of different HyNaCs without HyNaC2. […] In fact, all HyNaCs that were activated by Hydra-RFamide I were opened by lowering the extracellular Ca^2+ concentration ([Ca^2+]e) to 10 nM (Figure 4). […] Some DEG/ENaCs are constitutively opened by an amino acid substitution at the so-called DEG-position. To further investigate whether HyNaC12 forms a functional homomeric channel, we substituted a glycine at the DEG-position by threonine (G436T), which has a large side chain. This substitution did, however, not constitutively open HyNaC12 (data not shown). This applies also for the co-expression of HyNaC12-G436T together with pools of different wild-type HyNaC subunits, leaving the function of HyNaC12 unknown.
To study the biophysical properties of the new HyNaCs, cRNA of HyNaCs was synthesized in vitro (mMessage mMachine kit, Ambion, Austin, Texas, USA) and injected into Xenopus laevis oocytes of stage V and VI. […] Whole cell currents were recorded from defolliculated oocytes by two-electrode voltage-clamp (TEVC) using the amplifier TurboTec 03X (npi electronic GmbH, Tamm, Germany). […]

[10] = molecular target: HyNaC2/11/5 (Hydra vulgaris (Hydra magnipapillata), UniProt A0A0A0MP55+A8DZR6+D3UD58); assay: Activation of HyNaC2/11/5 expressed in Xenopus oocytes by Hydra-RFamides (TEVC); format: cell-based
HyNaC2/11/5, sequence (A0A0A0MP55 entry or part of it): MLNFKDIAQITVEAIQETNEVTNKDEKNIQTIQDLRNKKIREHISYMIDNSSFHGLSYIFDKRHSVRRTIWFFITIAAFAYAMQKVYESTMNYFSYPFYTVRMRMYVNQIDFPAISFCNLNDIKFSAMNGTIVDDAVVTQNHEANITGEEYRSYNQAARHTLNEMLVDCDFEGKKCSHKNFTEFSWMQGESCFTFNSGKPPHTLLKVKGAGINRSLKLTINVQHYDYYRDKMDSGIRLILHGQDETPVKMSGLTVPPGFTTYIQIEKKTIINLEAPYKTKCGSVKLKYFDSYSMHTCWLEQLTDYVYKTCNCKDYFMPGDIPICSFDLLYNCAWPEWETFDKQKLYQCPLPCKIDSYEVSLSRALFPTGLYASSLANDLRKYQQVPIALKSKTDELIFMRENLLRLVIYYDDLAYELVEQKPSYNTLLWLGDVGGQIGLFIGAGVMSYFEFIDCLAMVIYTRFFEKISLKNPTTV
HyNaC2/11/5, sequence (A8DZR6 entry or part of it): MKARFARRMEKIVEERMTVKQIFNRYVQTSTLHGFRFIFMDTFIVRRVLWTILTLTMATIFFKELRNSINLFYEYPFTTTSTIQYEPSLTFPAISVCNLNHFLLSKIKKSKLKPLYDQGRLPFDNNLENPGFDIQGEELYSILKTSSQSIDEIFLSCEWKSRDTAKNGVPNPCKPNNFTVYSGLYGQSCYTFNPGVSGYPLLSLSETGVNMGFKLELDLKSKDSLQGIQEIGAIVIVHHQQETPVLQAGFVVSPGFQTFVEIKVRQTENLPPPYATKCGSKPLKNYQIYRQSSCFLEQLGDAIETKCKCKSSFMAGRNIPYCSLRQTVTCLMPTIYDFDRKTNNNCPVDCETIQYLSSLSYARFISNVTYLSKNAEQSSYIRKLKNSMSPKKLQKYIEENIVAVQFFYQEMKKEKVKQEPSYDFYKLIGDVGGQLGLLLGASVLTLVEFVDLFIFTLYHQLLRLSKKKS
HyNaC2/11/5, sequence (D3UD58 entry or part of it): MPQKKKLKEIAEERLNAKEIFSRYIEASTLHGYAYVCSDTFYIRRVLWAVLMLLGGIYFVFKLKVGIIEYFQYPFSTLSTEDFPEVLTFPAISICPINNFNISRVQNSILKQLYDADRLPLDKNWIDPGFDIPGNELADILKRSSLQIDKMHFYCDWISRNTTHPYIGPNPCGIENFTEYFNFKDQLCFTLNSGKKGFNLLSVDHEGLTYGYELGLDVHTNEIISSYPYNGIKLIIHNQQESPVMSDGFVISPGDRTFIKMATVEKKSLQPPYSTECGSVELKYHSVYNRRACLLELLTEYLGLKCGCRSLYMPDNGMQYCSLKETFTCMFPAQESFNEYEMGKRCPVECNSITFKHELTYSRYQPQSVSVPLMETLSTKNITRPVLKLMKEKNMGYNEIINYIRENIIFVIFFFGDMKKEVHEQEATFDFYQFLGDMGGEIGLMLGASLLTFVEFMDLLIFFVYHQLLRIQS
Procedure: as §1
(§2) EC50 values for Hydra-RFamides I and II as well as IC50 values for diminazene were determined by fits to the Hill equation using IGOR Pro (version 6.06, WaveMetrics, Inc.). Reversal potentials were defined as the first recorded data point, where currents reversed signs from negative to positive. For I/V relationships, voltage ramps in the absence of the agonist were used to subtract background conductances. Results are reported as mean ± standard error.

[11] = molecular target: HyNaC2/4/6 (Hydra vulgaris (Hydra magnipapillata), UniProt A0A0A0MP54+A8DZR6+A8DZR8); assay: Activation of HyNaC2/4/6 expressed in Xenopus oocytes by Hydra-RFamides (TEVC); format: cell-based; settings: EGTA-injected oocytes
Procedure: as §1, §2

[12] = molecular target: HyNaC2/9/7 (Hydra vulgaris (Hydra magnipapillata), UniProt A0A0A0MP48+A0A0A0MP73+A8DZR6); assay: Activation of HyNaC2/9/7 expressed in Xenopus oocytes by Hydra-RFamides (TEVC); format: cell-based; settings: EGTA-injected oocytes
HyNaC2/9/7, sequence (A0A0A0MP48 entry or part of it): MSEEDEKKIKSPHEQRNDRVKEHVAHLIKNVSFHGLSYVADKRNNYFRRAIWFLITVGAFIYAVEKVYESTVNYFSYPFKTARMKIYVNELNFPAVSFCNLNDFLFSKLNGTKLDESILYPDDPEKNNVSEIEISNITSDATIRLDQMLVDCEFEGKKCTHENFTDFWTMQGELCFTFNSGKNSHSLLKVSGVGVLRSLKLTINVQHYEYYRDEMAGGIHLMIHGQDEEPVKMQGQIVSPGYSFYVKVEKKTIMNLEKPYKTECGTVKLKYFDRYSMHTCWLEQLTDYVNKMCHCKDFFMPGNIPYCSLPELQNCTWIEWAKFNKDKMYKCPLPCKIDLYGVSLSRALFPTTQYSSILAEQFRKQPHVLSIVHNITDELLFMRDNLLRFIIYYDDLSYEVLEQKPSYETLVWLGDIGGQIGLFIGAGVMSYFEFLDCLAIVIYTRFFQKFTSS
HyNaC2/9/7, sequence (A8DZR6 entry or part of it): as the sequence (A8DZR6 entry or part of it) above
HyNaC2/9/7, sequence (A0A0A0MP73 entry or part of it): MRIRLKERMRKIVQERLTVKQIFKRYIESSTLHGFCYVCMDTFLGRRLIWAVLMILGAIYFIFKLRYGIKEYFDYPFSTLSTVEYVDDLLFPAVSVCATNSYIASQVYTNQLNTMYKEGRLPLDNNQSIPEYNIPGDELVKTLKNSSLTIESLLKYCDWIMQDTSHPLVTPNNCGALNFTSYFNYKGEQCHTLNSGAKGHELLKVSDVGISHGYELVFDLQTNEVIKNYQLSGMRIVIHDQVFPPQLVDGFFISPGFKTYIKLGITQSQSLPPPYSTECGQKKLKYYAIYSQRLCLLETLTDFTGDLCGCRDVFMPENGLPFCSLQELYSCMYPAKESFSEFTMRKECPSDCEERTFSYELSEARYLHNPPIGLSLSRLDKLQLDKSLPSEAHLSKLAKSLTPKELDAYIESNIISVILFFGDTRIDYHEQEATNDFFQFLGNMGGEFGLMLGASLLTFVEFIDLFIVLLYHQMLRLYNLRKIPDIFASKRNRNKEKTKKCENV
Procedure: as §1, §2

[13] = molecular target: HyNaC2/3/7 (Hydra vulgaris (Hydra magnipapillata), UniProt A0A0A0MP73+A8DZR6+A8DZR7); assay: Activation of HyNaC2/3/7 expressed in Xenopus oocytes by Hydra-RFamides (TEVC); format: cell-based; settings: EGTA-injected oocytes
Procedure: as §1, §2

[14] = molecular target: T1, HyNaC2/3/5 (Hydra vulgaris (Hydra magnipapillata), UniProt A8DZR6+A8DZR7+D3UD58); assay: Activation of HyNaC2/3/5 expressed in Xenopus oocytes by Hydra-RFamides (TEVC); format: cell-based; settings: EGTA-injected oocytes
T1 sequence (A8DZR6 entry or part of it): as the sequence (A8DZR6 entry or part of it) above
T1 sequence (D3UD58 entry or part of it): as the sequence (D3UD58 entry or part of it) above
T1 sequence (A8DZR7 entry or part of it): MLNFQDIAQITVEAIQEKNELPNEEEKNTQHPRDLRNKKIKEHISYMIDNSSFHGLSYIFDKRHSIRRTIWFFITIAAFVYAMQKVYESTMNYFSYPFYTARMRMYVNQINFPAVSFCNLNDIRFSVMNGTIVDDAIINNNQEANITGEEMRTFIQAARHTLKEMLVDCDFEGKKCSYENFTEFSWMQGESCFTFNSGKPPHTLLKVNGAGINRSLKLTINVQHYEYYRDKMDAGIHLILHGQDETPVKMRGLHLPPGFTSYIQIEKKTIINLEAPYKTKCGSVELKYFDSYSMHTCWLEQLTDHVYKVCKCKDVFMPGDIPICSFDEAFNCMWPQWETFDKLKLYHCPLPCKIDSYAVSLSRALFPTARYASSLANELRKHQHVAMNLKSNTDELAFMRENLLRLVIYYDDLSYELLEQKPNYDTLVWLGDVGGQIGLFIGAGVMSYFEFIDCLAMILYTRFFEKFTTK
Procedure: as §1, §2

[15] = molecular target: T1, HyNaC2/3/5; parameters: method as in PMID 20159980; settings: ref [4], cited from earlier work
[16] = molecular target: HyNaC2/3/6 (Hydra vulgaris (Hydra magnipapillata), UniProt A0A0A0MP54+A8DZR6+A8DZR7); assay: Activation of HyNaC2/3/6 expressed in Xenopus oocytes by Hydra-RFamides (TEVC); format: cell-based; settings: EGTA-injected oocytes
Procedure: as §1, §2

[17] = molecular target: HyNaC2/10/7 (Hydra vulgaris (Hydra magnipapillata), UniProt A0A0A0MP61+A0A0A0MP73+A8DZR6); assay: Activation of HyNaC2/10/7 expressed in Xenopus oocytes by Hydra-RFamides (TEVC); format: cell-based; settings: EGTA-injected oocytes
Procedure: as §1, §2

Q: For Hydra-RFamide II (peptide), which current at the highest concentration of Hydra-RFamide II of the concentration-response series (two-electrode voltage clamp, EGTA-injected oocytes); concentrations and EC50 not given [1] is on record?
A: Its current at the highest concentration of Hydra-RFamide II of the concentration-response series (two-electrode voltage clamp, EGTA-injected oocytes); concentrations and EC50 not given is 1.1 μA.

Q: And the current at the highest concentration of Hydra-RFamide II of the concentration-response series (two-electrode voltage clamp, EGTA-injected oocytes); concentrations and EC50 not given [2]?
A: The current at the highest concentration of Hydra-RFamide II of the concentration-response series (two-electrode voltage clamp, EGTA-injected oocytes); concentrations and EC50 not given was 11.8 μA.

Q: What about the current at the highest concentration of Hydra-RFamide II of the concentration-response series (two-electrode voltage clamp, EGTA-injected oocytes); concentrations and EC50 not given [3] of the same substance?
A: Its current at the highest concentration of Hydra-RFamide II of the concentration-response series (two-electrode voltage clamp, EGTA-injected oocytes); concentrations and EC50 not given is 4.7 μA.

Q: What about the current at the highest concentration of Hydra-RFamide II of the concentration-response series (two-electrode voltage clamp, EGTA-injected oocytes); concentrations and EC50 not given [4] of the same substance?
A: Its current at the highest concentration of Hydra-RFamide II of the concentration-response series (two-electrode voltage clamp, EGTA-injected oocytes); concentrations and EC50 not given is 9.2 μA.

Q: And the EC50 of current activation by Hydra-RFamide II (two-electrode voltage clamp, Xenopus oocytes injected with EGTA) [5]?
A: Its EC50 of current activation by Hydra-RFamide II (two-electrode voltage clamp, Xenopus oocytes injected with EGTA) is 1610 nM.

Q: And the EC50 of current activation by Hydra-RFamide II (two-electrode voltage clamp, Xenopus oocytes injected with EGTA) [6]?
A: The EC50 of current activation by Hydra-RFamide II (two-electrode voltage clamp, Xenopus oocytes injected with EGTA) was 950 nM.

Q: And the EC50 of current activation by Hydra-RFamide II (two-electrode voltage clamp, Xenopus oocytes injected with EGTA) [7]?
A: The EC50 of current activation by Hydra-RFamide II (two-electrode voltage clamp, Xenopus oocytes injected with EGTA) was 40 nM.

Q: For Hydra-RFamide V, which “activation of functional HyNaC heterotrimers (current elicited)” value ([8]; 5 μM peptide, Xenopus oocytes) is on record?
A: Its value is “did not elicit a current”.

Q: For Hydra-RFamide II, which “activation of HyNaC2/9/5” value [9] is on record?
A: The value was “not activated”.

Q: What about the “activation of channels that were activated by Hydra-RFamide I” value ([8]; data not shown) of the same substance?
A: The value was “also activated”.

Q: And the “apparent affinity for Hydra-RFamide II relative to Hydra-RFamide I” value ([10]; 0.95 μM compared with 13.8 μM)?
A: The value was “about 15 fold”.

Q: And the “current amplitude at highest agonist concentration (Hydra-RFamide II)” value (“current amplitude” below) ([10]; EGTA-injected oocytes)?
A: The value was 2.2 ± 0.4 μA.

Q: What about the EC50 ([10]; EGTA-injected oocytes, read-out: EC50 for Hydra-RFamide II) of the same substance?
A: The EC50 was 950 ± 160 nM.

Q: What about the “current amplitude” value [11] of the same substance?
A: The value was 4.7 ± 0.8 μA.

Q: And the “current amplitude” value [12]?
A: The value was 3.6 ± 1.3 μA.

Q: And the EC50 ([12]; read-out: EC50 for Hydra-RFamide II)?
A: Its EC50 is 40 ± 10 nM.

Q: What about the “current amplitude” value [13] of the same substance?
A: Its value is 11.8 ± 4.0 μA.

Q: What about the “current amplitude” value [14] of the same substance?
A: The value was 5.3 ± 1.0 μA.

Q: What about the EC50 ([14]; read-out: EC50 (apparent affinity) for Hydra-RFamide II) of the same substance?
A: Its EC50 is 1610 ± 270 nM.

Q: What about the EC50 ([15]; oocytes not injected with EGTA, read-out: EC50 (apparent affinity) for Hydra-RFamide II) of the same substance?
A: The EC50 was 340 ± 80 nM.

Q: And the “apparent affinity for Hydra-RFamide II relative to Hydra-RFamide I” value [15]?
A: Its value is “ten times higher”.

Q: What about the “current amplitude” value [16] of the same substance?
A: The value was 9.2 ± 1.7 μA.

Q: What about the “current amplitude” value [17] of the same substance?
A: The value was 1.1 ± 0.4 μA.
